{"source": "patent US9382254B2", "about": "“Compounds and pharmaceutical compositions thereof for the treatment of cystic fibrosis” (Galapagos NV, priority 2013, dated 2016)", "data": [{"biological_target": "T1, CFTR ΔF508 mutant (Homo sapiens, UniProt P13569, DEL508-508)", "T1 construct": "expressed in transfected cells; host or cells: CFBE41o- (adenoviral transduction)", "T1 sequence (P13569 with tags, fused parts or gaps DEL508-508)": "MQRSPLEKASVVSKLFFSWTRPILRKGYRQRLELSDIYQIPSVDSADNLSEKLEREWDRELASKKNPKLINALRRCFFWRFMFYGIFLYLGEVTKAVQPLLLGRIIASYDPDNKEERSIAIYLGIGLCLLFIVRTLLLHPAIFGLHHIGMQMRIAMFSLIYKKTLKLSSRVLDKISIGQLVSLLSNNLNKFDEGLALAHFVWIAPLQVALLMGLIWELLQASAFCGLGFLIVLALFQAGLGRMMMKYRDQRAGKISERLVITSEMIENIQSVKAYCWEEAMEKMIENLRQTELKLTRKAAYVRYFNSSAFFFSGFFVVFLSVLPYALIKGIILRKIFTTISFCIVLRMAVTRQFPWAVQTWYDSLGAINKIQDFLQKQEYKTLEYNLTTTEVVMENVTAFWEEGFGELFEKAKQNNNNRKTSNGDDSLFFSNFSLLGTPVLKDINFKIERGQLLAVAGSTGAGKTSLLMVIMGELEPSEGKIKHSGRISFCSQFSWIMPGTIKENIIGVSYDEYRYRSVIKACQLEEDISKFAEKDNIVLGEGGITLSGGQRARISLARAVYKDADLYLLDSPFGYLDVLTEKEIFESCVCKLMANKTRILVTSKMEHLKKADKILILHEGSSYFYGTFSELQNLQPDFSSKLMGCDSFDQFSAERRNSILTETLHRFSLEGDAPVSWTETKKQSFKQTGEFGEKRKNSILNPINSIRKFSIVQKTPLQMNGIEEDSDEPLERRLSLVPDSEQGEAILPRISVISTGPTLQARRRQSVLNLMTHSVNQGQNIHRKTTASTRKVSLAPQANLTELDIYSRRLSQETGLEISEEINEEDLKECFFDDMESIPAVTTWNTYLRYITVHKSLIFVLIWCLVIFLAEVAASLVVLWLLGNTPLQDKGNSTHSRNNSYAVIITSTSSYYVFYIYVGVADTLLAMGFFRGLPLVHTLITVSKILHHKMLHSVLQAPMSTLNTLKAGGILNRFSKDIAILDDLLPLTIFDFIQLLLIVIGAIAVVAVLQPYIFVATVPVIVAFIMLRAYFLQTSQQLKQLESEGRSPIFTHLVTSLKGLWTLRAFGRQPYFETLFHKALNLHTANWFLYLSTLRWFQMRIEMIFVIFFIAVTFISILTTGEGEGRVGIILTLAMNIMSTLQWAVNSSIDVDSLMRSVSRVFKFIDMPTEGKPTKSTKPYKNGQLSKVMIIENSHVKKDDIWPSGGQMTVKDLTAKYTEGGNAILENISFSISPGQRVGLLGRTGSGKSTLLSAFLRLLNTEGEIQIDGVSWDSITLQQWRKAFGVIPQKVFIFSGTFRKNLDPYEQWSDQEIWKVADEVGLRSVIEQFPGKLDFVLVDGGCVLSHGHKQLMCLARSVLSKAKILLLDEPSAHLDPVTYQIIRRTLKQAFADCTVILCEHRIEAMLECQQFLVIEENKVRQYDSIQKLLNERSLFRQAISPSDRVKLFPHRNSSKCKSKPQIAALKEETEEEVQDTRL", "test": "YFP-halide influx assay for the CFTR-ΔF508 mutation, gluconate buffer", "type": "cell-based", "conditions": "CFBE41o- cells, forskolin 10.67 μM", "method_in_brief": "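Channel opening is read as the fall in YFP fluorescence over 7 s following iodide injection, expressed as 1-F/F0 and plotted versus compound concentration to derive EC50. Cells used were CFBE41o- expressing adenoviral ΔF508 CFTR and halide-sensitive YFP, rescued by 24 h at 27 °C or 24 h modulator treatment at 37 °C.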", "units": {"EC50": "nM"}, "values": [{"smiles": "CCS(=O)(=O)c1cc(C(N)=O)c(NC(=O)c2ccccc2F)s1", "note": "[Compound 128, 5-(ethylsulfonyl)-2-(2-fluorobenzamido) thiophene-3-carboxamide]", "EC50": 400}, {"smiles": "NC(=O)c1cc(S(=O)(=O)C2CCCCC2)sc1NC(=O)c1ccccc1F", "note": "[Compound 129, 5-(cyclohexylsulfonyl)-2-(2-fluorobenzamido) thiophene-3-carboxamide]", "EC50": 275}, {"smiles": "COc1ccc(CS(=O)(=O)c2cc(C(N)=O)c(NC(=O)c3ccccc3F)s2)cc1", "note": "[Compound 130, 2-(2-fluorobenzamido)-5-(4-methoxybenzylsulfonyl) thiophene-3-carboxamide]", "EC50": 383}, {"smiles": "NC(=O)c1cc(S(=O)(=O)N2CCOCC2)sc1NC(=O)C1(O)CC1", "note": "[Compound 131, 2-(1-hydroxycyclopropanecarboxamido)-5-(morpholinosulfonyl) thiophene-3-carboxamide]", "EC50": 921}, {"smiles": "Cc1nc(C(=O)Nc2sc(S(=O)(=O)N3CCOCC3)cc2C(N)=O)cs1", "note": "[Compound 132, N-(3-carbamoyl-5-(morpholinosulfonyl)thiophen-2-yl)-2-methylthiazole-4-carboxamide]", "EC50": 3330}, {"smiles": "NC(=O)c1cc(S(=O)(=O)N2CCOCC2)sc1NC(=O)c1ccc(Cl)cc1F", "note": "[Compound 133, 2-(4-chloro-2-fluorobenzamido)-5-(morpholinosulfonyl) thiophene-3-carboxamide]", "EC50": 271}, {"smiles": "NC(=O)c1cc(S(=O)(=O)N2CCOCC2)sc1NC(=O)c1cccc(C2CC2)c1", "note": "[Compound 134, 2-(3-cyclopropylbenzamido)-5-(morpholinosulfonyl) thiophene-3-carboxamide]", "EC50": 946}, {"smiles": "COc1cc(C)ccc1C(=O)Nc1sc(S(=O)(=O)N2CCOCC2)cc1C(N)=O", "note": "[Compound 135, 2-(2-methoxy-4-methylbenzamido)-5-(morpholinosulfonyl) thiophene-3-carboxamide]", "EC50": "> 1000"}, {"smiles": "Cc1ccccc1C(=O)Nc1sc(S(=O)(=O)N2CCOCC2)cc1C(N)=O", "note": "[Compound 136, 2-(2-methylbenzamido)-5-(morpholinosulfonyl) thiophene-3-carboxamide]", "EC50": 291}, {"smiles": "NC(=O)c1cc(S(=O)(=O)N2CCOCC2)sc1NC(=O)c1cccc(O)c1", "note": "[Compound 137, 2-(3-hydroxybenzamido)-5-(morpholinosulfonyl) thiphene-3-carboxamide]", "EC50": 263}, {"smiles": "NC(=O)c1cc(S(=O)(=O)N2CCOCC2)sc1NC(=O)c1ccc(F)cc1F", "note": "[Compound 138, 2-(2,4-difluorobenzamido)-5-(morpholinosulfonyl) thiophene-3-carboxamide]", "EC50": 313}, {"smiles": "NC(=O)c1cc(S(=O)(=O)N2C[C@@H]3C[C@H]2CO3)sc1NC(=O)c1ccccc1F", "note": "[Compound 144, 5-((1S,4S)-2-oxa-5-azabicyclo[2.2.1]heptan-5-ylsulfonyl)-2-(2-fluorobenzamido) thiophene-3-carboxamide]", "EC50": 365}, {"smiles": "NC(=O)c1cc(S(=O)(=O)N2CCCOCC2)sc1NC(=O)c1cc[nH]n1", "note": "[Compound 146, N-(5-(1,4-oxazepan-4-ylsulfonyl)-3-carbamoylthiophen-2-yl)-1H-pyrazole-3-carboxamide]", "EC50": 241}, {"smiles": "COc1ccc(CN(C)S(=O)(=O)c2cc(C(N)=O)c(NC(=O)c3ccccc3F)s2)cc1", "note": "[Compound 147, 2-(2-fluorobenzamido)-5-(N-(4-methoxybenzyl)-N-methylsulfamoyl)thiophene-3-carboxamide]", "EC50": 242}, {"smiles": "CC(C)(C)OC(=O)N1CCC2(CC1)CCN(S(=O)(=O)c1cc(C(N)=O)c(NC(=O)c3ccccc3F)s1)C2", "note": "[Compound 148, tert-butyl 2-(4-carbamoyl-5-(2-fluorobenzamido)thiophen-2-ylsulfonyl)-2,8-diazaspiro[4.5]decane-8-carboxylate]", "EC50": 344}, {"smiles": "CC(C)(O)C1CCN(S(=O)(=O)c2cc(C(N)=O)c(NC(=O)c3ccccc3F)s2)CC1", "note": "[Compound 149, 2-(2-fluorobenzamido)-5-(4-(2-hydroxypropan-2-yl)piperidin-1-ylsulfonyl) thiophene-3-carboxamide]", "EC50": 517}, {"smiles": "NC(=O)c1cc(S(=O)(=O)N2CCc3ccccc3C2)sc1NC(=O)c1ccccc1F", "note": "[Compound 150]", "EC50": 638}, {"smiles": "NC(=O)c1cc(S(=O)(=O)N2Cc3ccccc3C2)sc1NC(=O)c1ccccc1F", "note": "[Compound 151, 2-(2-fluorobenzamido)-5-(isoindolin-2-ylsulfonyl)thiophene-3-carboxamide]", "EC50": 357}, {"smiles": "CN1CCC(N(C)S(=O)(=O)c2cc(C(N)=O)c(NC(=O)c3ccccc3F)s2)CC1", "note": "[Compound 155, 2-(2-fluorobenzamido)-5-(N-methyl-N-(1-methylpiperidin-4-yl)sulfamoyl) thiophene-3-carboxamide]", "EC50": "> 1000"}, {"smiles": "NC(=O)c1cc(S(=O)(=O)N(Cc2cccc(F)c2)C2CC2)sc1NC(=O)c1ccccc1F", "note": "[Compound 156, 5-(N-cyclopropyl-N-(3-fluorobenzyl)sulfamoyl)-2-(2-fluorobenzamido) thiophene-3-carboxamide]", "EC50": 361}, {"smiles": "NC(=O)c1cc(S(=O)(=O)N2CCC(c3ccccc3)CC2)sc1NC(=O)c1ccccc1F", "note": "[Compound 159, 2-(2-fluorobenzamido)-5-(4-phenylpiperidin-1-ylsulfonyl)thiophene-3-carboxamide]", "EC50": 407}, {"smiles": "CN(C1CCOCC1)S(=O)(=O)c1cc(C(N)=O)c(NC(=O)c2ccccc2F)s1", "note": "[Compound 161, 2-(2-fluorobenzamido)-5-(N-methyl-N-(tetrahydro-2H-pyran-4-yl)sulfamoyl) thiophene-3-carboxamide]", "EC50": 221}, {"smiles": "N#CC1CCN(S(=O)(=O)c2cc(C(N)=O)c(NC(=O)c3ccccc3F)s2)CC1", "note": "[Compound 162, 5-(4-cyanopiperidin-1-ylsulfonyl)-2-(2-fluorobenzamido) thiophene-3-carboxamide]", "EC50": 331}, {"smiles": "CC(C)S(=O)(=O)c1cc(C(N)=O)c(NC(=O)c2ccccc2F)s1", "note": "[Compound 163, 2-(2-fluorobenzamido)-5-(isopropylsulfonyl) thiophene-3-carboxamide]", "EC50": 272}, {"smiles": "CC(C)(C)S(=O)(=O)c1cc(C(N)=O)c(NC(=O)c2ccccc2F)s1", "note": "[Compound 164, 5-(tert-butylsulfonyl)-2-(2-fluorobenzamido) thiophene-3-carboxamide]", "EC50": "> 1000"}, {"smiles": "NC(=O)c1cc(S(=O)(=O)C2CCOCC2)sc1NC(=O)c1ccccc1F", "note": "[Compound 165, 2-(2-fluorobenzamido)-5-(tetrahydro-2H-pyran-4-ylsulfonyl)thiophene-3-carboxamide]", "EC50": "> 1000"}, {"smiles": "Cc1cc(C(=O)Nc2sc(S(=O)(=O)N3CCOCC3)cc2C(N)=O)n[nH]1", "note": "[Compound 166, N-(3-carbamoyl-5-(morpholinosulfonyl)thiophen-2-yl)-5-methyl-1H-pyrazole-3-carboxamide]", "EC50": 815}, {"smiles": "Cn1nc(C(C)(C)C)cc1C(=O)Nc1sc(S(=O)(=O)N2CCOCC2)cc1C(N)=O", "note": "[Compound 167, 3-tert-butyl-N-(3-carbamoyl-5-(morpholinosulfonyl)thiophen-2-yl)-1-methyl-1H-pyrazole-5-carboxamide]", "EC50": 3050}, {"smiles": "COc1cc(F)ccc1C(=O)Nc1sc(S(=O)(=O)N2CCOCC2)cc1C(N)=O", "note": "[Compound 168, 2-(4-fluoro-2-methoxybenzamido)-5-(morpholinosulfonyl) thiophene-3-carboxamide]", "EC50": 1660}, {"smiles": "Cc1cc(F)ccc1C(=O)Nc1sc(S(=O)(=O)N2CCOCC2)cc1C(N)=O", "note": "[Compound 169, 2-(4-fluoro-2-methylbenzamido)-5-(morpholinosulfonyl) thiophene-3-carboxamide]", "EC50": 210}, {"smiles": "CN(C)C1CCN(S(=O)(=O)c2cc(C(N)=O)c(NC(=O)c3ccccc3F)s2)CC1", "note": "[Compound 174, 5-(4-(dimethylamino)piperidin-1-ylsulfonyl)-2-(2-fluorobenzamido) thiophene-3-carboxamide]", "EC50": 2370}, {"smiles": "N#CC1CN(S(=O)(=O)c2cc(C(N)=O)c(NC(=O)c3ccccc3F)s2)C1", "note": "[Compound 176, 5-(3-cyanoazetidin-1-ylsulfonyl)-2-(2-fluorobenzamido)thiophene-3-carboxamide]", "EC50": 1460}, {"smiles": "NC(=O)c1cc(S(=O)(=O)N2CC(F)C2)sc1NC(=O)c1ccccc1F", "note": "[Compound 177, 5-(3-fluoroazetidin-1-ylsulfonyl)-2-(2-fluorobenzamido)thiophene-3-carboxamide]", "EC50": 178}, {"smiles": "NC(=O)c1cc(S(=O)(=O)c2ccccn2)sc1NC(=O)c1ccccc1F", "note": "[Compound 178, 2-(2-fluorobenzamido)-5-(pyridin-2-ylsulfonyl) thiophene-3-carboxamide]", "EC50": 524}, {"smiles": "Cc1ccccc1S(=O)(=O)c1cc(C(N)=O)c(NC(=O)c2ccccc2F)s1", "note": "[Compound 180, 2-(2-fluorobenzamido)-5-(o-tolylsulfonyl)thiophene-3-carboxamide]", "EC50": 123}, {"smiles": "COc1ccccc1S(=O)(=O)c1cc(C(N)=O)c(NC(=O)c2ccccc2F)s1", "note": "[Compound 181, 2-(2-fluorobenzamido)-5-(2-methoxyphenylsulfonyl) thiophene-3-carboxamide]", "EC50": 144}, {"smiles": "CN(CC(C)(C)C)S(=O)(=O)c1cc(C(N)=O)c(NC(=O)c2ccccc2F)s1", "note": "[Compound 184, 2-(2-fluorobenzamido)-5-(N-methyl-N-neopentylsulfamoyl) thiophene-3-carboxamide]", "EC50": 679}, {"smiles": "CN(CCC(F)(F)F)S(=O)(=O)c1cc(C(N)=O)c(NC(=O)c2ccccc2F)s1", "note": "[Compound 185, 2-(2-fluorobenzamido)-5-(N-methyl-N-(3,3,3-trifluoropropyl)sulfamoyl) thiophene-3-carboxamide]", "EC50": 335}, {"smiles": "COCCCN(C)S(=O)(=O)c1cc(C(N)=O)c(NC(=O)c2ccccc2F)s1", "note": "[Compound 186, 2-(2-fluorobenzamido)-5-(N-(3-methoxypropyl)-N-methylsulfamoyl)thiophene-3-carboxamide]", "EC50": 270}, {"smiles": "CN(C)C1CN(S(=O)(=O)c2cc(C(N)=O)c(NC(=O)c3ccccc3F)s2)C1", "note": "[Compound 187, 5-(3-(dimethylamino)azetidin-1-ylsulfonyl)-2-(2-fluorobenzamido)thiophene-3-carboxamide]", "EC50": 1600}]}]}
